Laboratory results published in US5716797A, “Stable two-part reagent for the measurement of creatine kinase activity” (Wako Pure Chemical Industries, Ltd., priority 1995, dated 1998).

Legend:
[1] = Solubility of SH compounds in the enzyme solution; settings: as CK reactivator in the enzyme solution
[2] = target: T1, creatine kinase (CK) in human serum (Homo sapiens, UniProt P06732); assay: Inhibitory effect of oxidized products of SH compounds on CK activity (HK/G6PDH UV method, NAC 26 mM as reactivator); assay type: biochemical; settings: for CK activity value: NAC 26 mM, 37° C.
T1 construct: Five fresh human serum samples were used; from tissue; host or cells: fresh human serum
Procedure: Investigation on the inhibitory effect of oxidized products of SH compounds on CK activity
Thus, oxidized products of the SH compounds, respectively, were obtained.
NAC (26 mM) as CK reactivator, each 5 mM of SH compound oxidized product obtained above, 2.6 mM of ADP, 3.9 u/ml of HK (available from Oriental Yeast Co., Ltd.), 8.0 u/ml of G6PDH (available from Oriental Yeast Co., Ltd.), 2.6 mM of NADP, 21 mM of glucose, 10 mM of magnesium acetate, 6.5 mM of AMP, 0.013 mM of APSA, 0.1% (w/v) of sodium azide and 2 mM of EDTA-2Na were dissolved in 128 mM imidazole-acetate buffer (pH 6.7). The thus obtained solutions were adjusted to pH 6.7 with sodium hydroxide to obtain enzyme solutions.
An enzyme solution containing no SH compound oxidized product was prepared as a control standard solution.
Five fresh human serum samples were used.
To 8 μl of each sample was added 320 μl of each enzyme solution, followed by preincubation for 5 minutes. Then, 80 μl of the substrate solution was added to initiate the reaction and the change of absorbance per minute was measured for 3 minutes from 2 minutes after the addition of the substrate solution. The CK activity value was calculated from the molecular extinction coefficient of the NADPH produced.
As a measuring apparatus, an Autoanalyzer Hitachi Model 7150 was used, and the measurement was carried out at 37° C. by use of dual wavelength (λ1 =405 nm, λ2 =340 nm).
Tables 2 and 3 show the CK activity values of the 5 samples in each case and the average thereof.

CK activity = settings: Scand. J. Clin. Lab. Invest. 39, 737-742 (1979); cited from earlier work

T1 sequence (P06732 whole entry): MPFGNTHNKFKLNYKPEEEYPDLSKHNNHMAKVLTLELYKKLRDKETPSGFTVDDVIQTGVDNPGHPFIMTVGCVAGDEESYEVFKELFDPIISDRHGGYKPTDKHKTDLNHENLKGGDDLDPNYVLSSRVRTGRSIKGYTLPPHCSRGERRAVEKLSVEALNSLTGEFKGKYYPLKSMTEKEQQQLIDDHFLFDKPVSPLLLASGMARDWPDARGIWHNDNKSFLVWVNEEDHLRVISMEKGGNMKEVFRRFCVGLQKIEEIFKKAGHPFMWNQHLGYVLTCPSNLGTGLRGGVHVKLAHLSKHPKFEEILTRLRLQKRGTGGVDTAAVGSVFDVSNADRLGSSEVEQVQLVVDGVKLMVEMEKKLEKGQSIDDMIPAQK

SMILES	solubility [1]	CK activity value ([2]; Sample 1 (fresh human serum), 5 mM SH compound oxidized product) [IU/l.]	CK activity value ([2]; Sample 2, 5 mM SH compound oxidized product) [IU/l.]	CK activity value ([2]; Sample 3, 5 mM SH compound oxidized product) [IU/l.]	CK activity value ([2]; Sample 4, 5 mM SH compound oxidized product) [IU/l.]	CK activity value ([2]; Sample 5, 5 mM SH compound oxidized product) [IU/l.]	CK activity value, Average ([2]; average of 5 samples, 5 mM SH compound oxidized product) [IU/l.]	activity at 5000 µM ([2]; average with enzyme solution containing no SH compound oxidized product = 100%, 5 mM oxidized product, read-out: CK activity, relative value) [%]	effect on CK activity (CK activity)
Nc1cc(O)nc(S)n1.O [AHMP, 4-amino-6-hydroxy-2-mercaptopyrimidine monohydrate]	low solubility	–	–	–	–	–	–	–	–
CC(=O)N[C@@H](CSSC[C@H](NC(C)=O)C(=O)O)C(=O)O [NAC oxidized product]	–	124	342	87	272	80	181	80.1	inhibits CK activity
